Laboratory results as given in patent US11498920B2, “4-(1H-imidazol-5-yl)-1H-pyrrolo[2, 3-b] pyridines for use in the treatment of leukaemias, lymphomas and solid tumors” (MASARYKOVA UNIVERZITA, priority 2018, dated 2022).

How the values were obtained:
Assay type in all cases: cell-based
primary CLL cells = test: Cytotoxicity, TMRE flow cytometry viability, primary CLL cells (Example II.1); conditions: Homo sapiens, CLL cell, 6 hours, TMRE positive cells normalized to control, ratio to PF670462, <1 = higher cytotoxicity than PF670462, read-out: Viability of cells, Compound of formula I (100 μM), relative to PF670462 (100 μM), CLL primary cells
[1] = system: Maver-1 cells (mantle cell lymphoma); test: Cytotoxicity, TMRE flow cytometry viability, Maver-1 cells (Example II.1); conditions: Homo sapiens, Maver1, 24 hours, TMRE positive cells normalized to control, ratio to PF670462, <1 = higher cytotoxicity than PF670462, read-out: Viability of cells, Compound of formula I (100 μM), relative to PF670462 (100 μM), Maver-1 cells (mantle cell lymphoma)
A375 = test: Cytotoxicity on panel of cell lines, TMRE viability (Example II.2); conditions: Homo sapiens, A-375, 24 hours, mean, control = 1, read-out: cell viability relative to control, A375 (melanoma)
Protocol: (§1) The leukemia and lymphoma-derived cell lines [MEC-1 cell line (derived from chronic lymphocytic leukemia—CLL), Nalm-16 (acute lymphocytic leukemia—ALL), K562 (chronic myeloid leukemia—CML), HL-60 (acute myeloid leukemia—AML), Maver-1 and Mino (mantle cell lymphoma—MCL), BL-41 (Burkitt lymphoma—BL), WSU-NHL (follicular lymphoma—FL), SUDHL (diffuse large B-cell lymphoma—DLBCL)], primary CLL cells and nonmalignant control primary cells were cultured in suspension in flasks under the following conditions: RPMI 1640 medium (Hyclone) supplemented with 10% fetal bovine serum (FBS, Gibco) and 1% penicillin/streptomycin (Life Technologies), 37° C., 5% CO2 and 95% relative humidity, with optimal culture cell density 5×10^6 cells/mL in case of primary cells and 0.5-1×10^6 cells/mL in case of cell lines. The adherent cell lines [A375 (derived from malignant melanoma), MDA-MB-231 and MCF-7 (breast cancer), MIA-PA-CA and PANC1 (pancreatic cancer), PC3 (prostate cancer), OVCAR4 (ovarian cancer) and HEPG2 (hepatocellular carcinoma)] were cultured on plates under the same conditions using RPMI1640 or DMEM medium (Gibco) according to instructions provided by the distributor (DSMZ/ATCC).
(§2) The tested cell lines were incubated with inhibitors at 30 μM concentration or corresponding amount of solvent (DMSO, Sigma Aldrich) in standard culture conditions, seeded as 10^5 cells/500 μl per well in a 24-well plate. Experiments were performed in technical duplicates and 2-3 biological repetitions per cell line. Viability of cells was assessed after 24 hours.
(§3) Relative values are presented as a mean value, showing ratio to the effect of control. Relative value <1=lower viability than control condition.

BL-41 = test: as above; conditions: Homo sapiens, 24 hours, mean, control = 1, read-out: cell viability relative to control, BL-41 (BL)
Protocol: as §1, §2, §3

HEPG2 = test: as above; conditions: Homo sapiens, 24 hours, mean, control = 1, read-out: cell viability relative to control, HEPG2 (hepatocellular carcinoma)
Protocol: as §1, §2, §3

HL60 = test: as above; conditions: Homo sapiens, HL-60, 24 hours, mean, control = 1, read-out: cell viability relative to control, HL60 (AML)
Protocol: as §1, §2, §3

K562 = test: as above; conditions: Homo sapiens, 24 hours, mean, control = 1, read-out: cell viability relative to control, K562 (CML)
Protocol: as §1, §2, §3

MCF-7 = test: as above; conditions: Homo sapiens, MCF7, 24 hours, mean, control = 1, read-out: cell viability relative to control, MCF-7 (breast cancer)
Protocol: as §1, §2, §3

MDA-MB-231 = test: as above; conditions: Homo sapiens, 24 hours, mean, control = 1, read-out: cell viability relative to control, MDA-MB-231 (breast cancer)
Protocol: as §1, §2, §3

MEC-1 = test: as above; conditions: Homo sapiens, MEC1, 24 hours, mean, control = 1, read-out: cell viability relative to control, MEC-1 (CLL)
Protocol: as §1, §2, §3

MIA-PA-CA = test: as above; conditions: Homo sapiens, MIA PaCa-2, 24 hours, mean, control = 1, read-out: cell viability relative to control, MIA-PA-CA (pancreatic cancer)
Protocol: as §1, §2, §3

Maver1 = test: as above; conditions: Homo sapiens, 24 hours, mean, control = 1, read-out: cell viability relative to control, Maver1 (MCL)
Protocol: as §1, §2, §3

Mino = test: as above; conditions: Homo sapiens, 24 hours, mean, control = 1, read-out: cell viability relative to control, Mino (MCL)
Protocol: as §1, §2, §3

OVCAR4 = test: as above; conditions: Homo sapiens, OVCAR-4, 24 hours, mean, control = 1, read-out: cell viability relative to control, OVCAR4 (ovarian cancer)
Protocol: as §1, §2, §3

PANC1 = test: as above; conditions: Homo sapiens, PANC-1, 24 hours, mean, control = 1, read-out: cell viability relative to control, PANC1 (pancreatic cancer)
Protocol: as §1, §2, §3

PC3 = test: as above; conditions: Homo sapiens, PC-3, 24 hours, mean, control = 1, read-out: cell viability relative to control, PC3 (prostate cancer)
Protocol: as §1, §2, §3

SUDHL = test: as above; conditions: 24 hours, mean, control = 1, read-out: cell viability relative to control, SUDHL (DLBCL)
Protocol: as §1, §2, §3

WSU-NHL = test: as above; conditions: Homo sapiens, 24 hours, mean, control = 1, read-out: cell viability relative to control, WSU-NHL (FL)
Protocol: as §1, §2, §3

primary CLL = test: as above; conditions: Homo sapiens, 24 hours, mean, control = 1, read-out: cell viability relative to control, primary CLL
Protocol: as §1, §2, §3

Nalm16 = test: as above; conditions: 24 hours, mean, control = 1, read-out: cell viability relative to control, Nalm16 (ALL)
Protocol: as §1, §2, §3

Row | Structure (SMILES) | viability at 100 µM (primary CLL cells) | viability at 100 µM [1] | viability at 30 µM (A375) | viability at 30 µM (BL-41) | viability at 30 µM (HEPG2) | viability at 30 µM (HL60) | viability at 30 µM (K562) | viability at 30 µM (MCF-7) | viability at 30 µM (MDA-MB-231) | viability at 30 µM (MEC-1) | viability at 30 µM (MIA-PA-CA) | viability at 30 µM (Maver1) | viability at 30 µM (Mino) | viability at 30 µM (OVCAR4) | viability at 30 µM (PANC1) | viability at 30 µM (PC3) | viability at 30 µM (SUDHL) | viability at 30 µM (WSU-NHL) | viability at 30 µM (primary CLL) | viability at 30 µM (Nalm16)
1 | Fc1ccc(-c2nc(I)n(C3CCCCC3)c2-c2ccnc3[nH]ccc23)cc1 [Preparative Example 95, 4-(1-cyclohexyl-4-(4-fluorophenyl)-2-iodo-1H-imidazol-5-yl)-1H-pyrrolo[2,3-b]pyridine] | 2% | 1% | 16% | 0% | 5% | 2% | 1% | 1% | 2% | 0% | 1% | 1% | 0% | 7% | 10% | 1% | 0% | 0% | 2% | –
2 | Fc1ccc(-c2ncn(Cc3ccccc3)c2-c2ccnc3[nH]ccc23)cc1Cl [Preparative Example 140, 4-(1-benzyl-4-(3-chloro-4-fluorophenyl)-1H-imidazol-5-yl)-1H-pyrrolo[2,3-b]pyridine] | 1% | 0% | 80% | 44% | 22% | 78% | – | 43% | 86% | 67% | 29% | 7% | 3% | 87% | 77% | 67% | 11% | 56% | 60% | –
3 | Cc1cc2c(-c3c(-c4ccc(F)cc4)ncn3C3CCCCC3)ccnc2[nH]1 [Preparative Example 39, 4-(1-cyclohexyl-4-(4-fluorophenyl)-1H-imidazol-5-yl)-2-methyl-1H-pyrrolo[2,3-b]pyridine] | 10% | 2% | 16% | 10% | 55% | 62% | 73% | – | 71% | 22% | 56% | 2% | 26% | 42% | 44% | 29% | 24% | 88% | 48% | 6%
